# Measurements from BindingDB's records for doi:10.1016/s0960-894x(01)00648-5 (Merck Research Laboratories, 2001).
# Legend:
# [1] = molecular target: T1, Genome polyprotein (Human rhinovirus sp., UniProt Q04107); assay: ChEBML_160894
# T1 sequence (Q04107 whole entry): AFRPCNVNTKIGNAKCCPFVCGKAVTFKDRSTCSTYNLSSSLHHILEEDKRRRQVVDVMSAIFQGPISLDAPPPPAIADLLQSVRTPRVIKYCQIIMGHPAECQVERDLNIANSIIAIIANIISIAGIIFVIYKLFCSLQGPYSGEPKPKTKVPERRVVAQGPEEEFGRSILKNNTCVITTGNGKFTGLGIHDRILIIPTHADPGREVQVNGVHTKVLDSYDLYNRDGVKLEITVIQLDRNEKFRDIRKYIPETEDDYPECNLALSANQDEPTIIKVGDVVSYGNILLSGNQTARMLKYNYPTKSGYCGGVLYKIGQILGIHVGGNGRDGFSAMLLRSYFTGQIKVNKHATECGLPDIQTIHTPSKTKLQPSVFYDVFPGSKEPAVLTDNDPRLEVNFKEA
# Text: (§1) Inhibitory activity against HRV 3Cpro using HPLC assay
# [2] = molecular target: T2, Genome polyprotein (Human rhinovirus sp., UniProt Q4U254); assay: ChEBML_160894
# T2 sequence (Q4U254 whole entry): T1 sequence (Q04107 whole entry)
# Text: as §1
SMILES,IC50 [1] [µM],IC50 [2] [µM]
"CC1Cc2cc(O)c3c(c2C(=O)O1)C(=O)C=C(C1=CC(=O)c2c(c(O)cc4c2C(=O)OC(C)C4)C1=O)C3=O (stereo not drawn) [9,9'-Dihydroxy-2,2'-dimethyl-1,2,1',2'-tetrahydro-[7,7']bi[3-oxa-phenanthrenyl]-4,5,8,4',5',8'-hexaone]",6,–
"Cc1cc(O)c2c(c1)C(=O)C=CC2=O [5-Hydroxy-7-methyl-[1,4]naphthoquinone]",–,6.4
"COC1=CC(=O)c2c(cc(C)c(C(C)=O)c2O)C1=O [6-Acetyl-5-hydroxy-2-methoxy-7-methyl-[1,4]naphthoquinone]",–,4.6
"COC1=CC(=O)c2c(cc(C)c(C(C)=O)c2OC(C)=O)C1=O [Acetic acid 2-acetyl-6-methoxy-3-methyl-5,8-dioxo-5,8-dihydro-naphthalen-1-yl ester]",–,8.1
"C[C@@H]1CC2=C(C(=O)c3c(O)cc(O)cc3C2=O)[C@@H](O)O1 [(1S,3R)-1,7,9-Trihydroxy-3-methyl-3,4-dihydro-1H-benzo[g]isochromene-5,10-dione]",–,47
"COC1=CC(=O)c2c(OC(C)=O)cc(C)cc2C1=O [Acetic acid 6-methoxy-3-methyl-5,8-dioxo-5,8-dihydro-naphthalen-1-yl ester]",–,40
"COC1=CC(=O)c2ccc(C)cc2C1=O [2-Methoxy-7-methyl-[1,4]naphthoquinone]",–,10.5
O=C1CC(=O)c2ccccc2C1=O,–,> 150
"COC1=CC(=O)c2cc(C)c(C(C)=O)c(OC)c2C1=O [7-Acetyl-2,8-dimethoxy-6-methyl-[1,4]naphthoquinone]",–,124
COC1=CC(=O)c2ccccc2C1=O,–,26
"Cc1cc(O)c2c(c1)C(=O)c1cc(O)cc(O)c1C2=O [1,3,8-trihydroxy-6-methylanthra-9,10-quinone]",> 150,–
"O=C1C=CC(=O)c2c1ccc1c2ccc2ccccc21 [Chrysene-1,4-dione]",–,46.5
"O=C1C=Cc2ccccc2C1=O [1,2-dihydronaphthalene-1,2-dione]",8.2,–
"O=C1C=CC(=O)c2ccccc21 [1,4-dihydronaphthalene-1,4-dione]",–,21
COC1=CC(=O)c2c(O)cc(C)cc2C1=O [2-methoxy-7-methyljuglone],–,2.4
COc1cc(O)c2c(c1)C(=O)c1cc(C)cc(O)c1C2=O [physcion],–,> 150
"CC(=O)c1c(C)cc2c(c1O)C(=O)C(=O)CC2=O [7-Acetyl-2,8-dihydroxy-6-methyl-[1,4]naphthoquinone]",–,> 150
O=C1C(=O)c2ccccc2-c2ccccc21,–,1.4
